Measured values as given in patent publication US8232406B2, “c-MET protein kinase inhibitors” (Vertex Pharmaceuticals Incorporated, priority 2006, dated 2012).

Molecular target: c-MET (Homo sapiens, UniProt P08581)
Experiment: Ki determination for the inhibition of c-MET (standard radiometric 33P-ATP kinase assay, polyE4Y substrate)
Assay type: biochemical
Details: 1.0 nM c-Met, 35 μM ATP, 0.5 mg/mL polyE4Y, 20 min; competitive tight-binding fit
Summary of the method: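 Ki obtained by fitting data to competitive tight-binding inhibition kinetics. c-Met at 1.0 nM phosphorylated polyE4Y (0.5 mg/mL) with 35 μM 33P-ATP for 20 min in pH 7.5 HEPES buffer with MgCl2, NaCl, BSA and DTT. Incorporated label measured by scintillation after TCA precipitation on filters.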

c-MET, sequence (P08581 25-1390): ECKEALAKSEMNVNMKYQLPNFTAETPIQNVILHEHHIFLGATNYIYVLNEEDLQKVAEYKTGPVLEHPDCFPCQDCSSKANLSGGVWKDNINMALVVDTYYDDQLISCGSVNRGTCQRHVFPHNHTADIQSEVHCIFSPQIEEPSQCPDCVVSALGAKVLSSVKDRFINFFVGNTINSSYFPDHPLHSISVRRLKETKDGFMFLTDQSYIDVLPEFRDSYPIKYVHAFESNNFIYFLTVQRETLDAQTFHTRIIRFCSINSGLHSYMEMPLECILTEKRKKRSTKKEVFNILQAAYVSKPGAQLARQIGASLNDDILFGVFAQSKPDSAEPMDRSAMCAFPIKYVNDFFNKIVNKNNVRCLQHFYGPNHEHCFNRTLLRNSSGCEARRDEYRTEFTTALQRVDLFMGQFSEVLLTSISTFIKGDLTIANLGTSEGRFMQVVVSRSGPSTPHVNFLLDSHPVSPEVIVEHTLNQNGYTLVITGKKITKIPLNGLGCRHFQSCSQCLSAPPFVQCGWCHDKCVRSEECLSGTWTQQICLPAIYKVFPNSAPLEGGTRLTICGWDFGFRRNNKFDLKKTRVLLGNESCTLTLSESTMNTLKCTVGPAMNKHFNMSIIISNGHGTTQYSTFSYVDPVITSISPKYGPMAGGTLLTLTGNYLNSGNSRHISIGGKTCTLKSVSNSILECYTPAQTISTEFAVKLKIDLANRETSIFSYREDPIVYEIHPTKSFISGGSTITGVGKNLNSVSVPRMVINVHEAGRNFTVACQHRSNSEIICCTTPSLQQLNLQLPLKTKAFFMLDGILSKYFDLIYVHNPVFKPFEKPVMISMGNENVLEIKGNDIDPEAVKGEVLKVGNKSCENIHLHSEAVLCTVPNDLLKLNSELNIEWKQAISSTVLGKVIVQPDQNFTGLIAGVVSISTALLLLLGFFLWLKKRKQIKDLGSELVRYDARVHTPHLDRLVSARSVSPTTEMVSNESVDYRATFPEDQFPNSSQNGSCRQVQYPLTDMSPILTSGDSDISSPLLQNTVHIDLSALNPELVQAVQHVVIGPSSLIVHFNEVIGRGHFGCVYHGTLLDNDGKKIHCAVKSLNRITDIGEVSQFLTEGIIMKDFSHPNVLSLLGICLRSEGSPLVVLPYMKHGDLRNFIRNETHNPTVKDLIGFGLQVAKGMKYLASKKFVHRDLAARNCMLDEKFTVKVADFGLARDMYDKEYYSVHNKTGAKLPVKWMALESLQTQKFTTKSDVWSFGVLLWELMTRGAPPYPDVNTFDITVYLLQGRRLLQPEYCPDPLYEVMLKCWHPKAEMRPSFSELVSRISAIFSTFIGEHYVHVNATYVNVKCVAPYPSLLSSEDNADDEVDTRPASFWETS

Ki | SMILES
≤ 100 nM | COC(=O)C(c1ccc(-c2cnc(N)c(-c3nnnn3-c3cccc(F)c3F)c2)cc1)N1CCCC1 (centres unmarked) [I-A-208]
≤ 100 nM | CC(=O)Nc1ccc(-c2cnc(N)c(-c3nnnn3-c3cccc(Cl)c3F)c2)cc1 [I-A-584]
≤ 100 nM | Nc1ncc(-c2ccc(NC(=O)CO)cc2)cc1-c1nnnn1-c1cccc(F)c1F [I-A-338]
100 to 1000 nM | Nc1ncc(-c2ccc(CN3CCCC3)cc2)cc1-c1nc2cccnc2n1-c1cccc(Cl)c1F [I-D-14]
≤ 100 nM | CN1C2CCC1CC(n1cc(-c3cnc(N)c(-c4nnnn4-c4cccc(F)c4F)c3)nn1)C2 (centres unmarked) [I-A-484]
≤ 100 nM | Nc1cccc(-c2cnc(N)c(-c3nncn3-c3cccc(F)c3F)n2)c1 [I-A-12]
≤ 100 nM | Nc1ncc(-c2ccc3c(c2)NC(=O)C3)cc1-c1nnnn1-c1cccc(F)c1F [I-A-190]
100 to 1000 nM | COC(=O)c1cccc(-c2cnc(N)c(-c3nnnn3-c3cccc(F)c3F)c2)c1 [I-A-317]
≤ 100 nM | Nc1nc2ccc(-c3cnc(N)c(-c4nnnn4-c4cccc(F)c4F)c3)cc2s1 [I-A-308]
100 to 1000 nM | CC(C)Oc1ccc(-c2cnc(N)c(-c3nnnn3-c3cccc(F)c3F)c2)cc1 [I-A-240]
100 to 1000 nM | CN(C)Cc1ccc(-c2cnc(N)c(-c3nnnn3-c3cc(F)ccc3F)c2)cc1 [I-A-580]
≤ 100 nM | CC1CCCN1Cc1ccc(-c2cnc(N)c(-c3nnnn3-c3cccc(F)c3F)c2)cc1 (centres unmarked) [I-A-209]
100 to 1000 nM | CN(C(=O)Nc1ccc(-c2cnc(N)c(-c3nnnn3-c3cccc(F)c3F)c2)cc1)c1ccccc1 [I-A-279]
≤ 100 nM | Nc1ncc(-c2ccc3c(c2)CC(=O)N3)cc1-c1nnnn1-c1cccc(F)c1F [I-A-188]
100 to 1000 nM | Nc1ncc(-c2cscn2)nc1-c1nnnn1-c1ccccc1F [I-A-541]
100 to 1000 nM | CCNC(=O)Nc1nc2cc(-c3cnc(N)c(-c4nnnn4-c4cccc(F)c4F)c3)c(OC)cc2[nH]1 [I-A-142]
≤ 100 nM | Nc1ncc(-c2cnc3[nH]ccc3c2)cc1-c1nnnn1-c1cccc(Cl)c1Cl [I-A-92]
≤ 100 nM | CCCN1CCC(n2cc(-c3cnc(N)c(-c4nnnn4-c4cccc(Cl)c4F)c3)cn2)CC1 [I-A-470]

Ki | SMILES
100 to 1000 nM | Nc1ncc(-c2cnc3ccccc3c2)nc1-c1nncn1-c1cccc(F)c1F [I-A-33]
≤ 100 nM | Nc1ncc(-c2cccc(F)c2)cc1-c1nnnn1-c1cccc(F)c1F [I-A-314]
≤ 100 nM | COc1cc(-c2cnc(N)c(-c3nnnn3-c3cccc(F)c3F)c2)ccc1O [I-A-299]
100 to 1000 nM | Nc1ncc(-c2ccccn2)cc1-c1nnnn1-c1cccc(F)c1F [I-A-493]
≤ 100 nM | Nc1ncc(-c2ccc(CN3CCCC(CO)C3)cc2)cc1-c1nnnn1-c1cccc(Cl)c1Cl (centres unmarked) [I-A-99]
≤ 100 nM | Nc1ncc(-c2ccc(CN3CCCC3)cc2)cc1-c1nnnn1-c1cc(F)cc(F)c1Cl [I-A-601]
100 to 1000 nM | Nc1ncc(C2=CCN(Cc3cccnc3)CC2)cc1-c1nnnn1-c1cccc(F)c1F [I-A-644]
≤ 100 nM | Nc1ncc(-c2cnn([C@H]3CCNC3)c2)cc1-c1nnnn1-c1cccc(F)c1F [I-A-412]
≤ 100 nM | CS(=O)(=O)c1ccc(-c2cnc(N)c(-c3nnnn3-c3cccc(F)c3F)c2)cc1 [I-A-250]
≤ 100 nM | CN(C)Cc1ccc(-c2cnc(N)c(-c3nc4cnccc4n3-c3cccc(F)c3F)c2)cc1 [I-D-4]
≤ 100 nM | Nc1ncc(-c2ccc(CN3CC[C@@H](O)C3)cc2)cc1-c1nnnn1-c1cccc(F)c1F [I-A-130]
≤ 100 nM | Nc1ncc(-c2ccccc2F)cc1-c1nnnn1-c1cccc(F)c1F [I-A-313]
≤ 100 nM | Nc1ncc(-c2cnn(C3CCN(CC(F)F)CC3)c2)cc1-c1nncn1-c1cccc(Cl)c1F [I-A-460]
≤ 100 nM | NCc1ccc(-c2cnc(N)c(-c3nnnn3-c3cccc(F)c3F)c2)cc1 [I-A-202]
≤ 100 nM | CCCN(CCC)Cc1ccc(-c2cnc(N)c(-c3nnnn3-c3cccc(F)c3F)c2)cc1 [I-A-156]
≤ 100 nM | CN(C)Cc1ccc(-c2cnc(N)c(-c3nnnn3-c3cccc(F)c3F)c2)cc1F [I-A-165]
≤ 100 nM | CC(C)(C#N)c1ccc(-c2cnc(N)c(-c3nnnn3-c3cccc(F)c3F)c2)cc1 [I-A-266]
